Test results published in US20230130403A1, “METHODS OF TREATMENT WITH S1P RECEPTOR MODULATORS” (PRIOTHERA SAS, priority 2021, published 2023).
Read-outs that look alike come from different tables or passages of the source.

Experiments:
[1] = tested on: chromosome aberration; test: In vitro genotoxicity: chromosome aberration; format: cell-based
[2] = tested on: blood pressure; test: Blood pressure in dogs; format: in vivo, dog
Source text: (§1) Based on the available in vitro and in vivo data, except for the potential to cause a negative chronotropic effect and some mild increase in blood pressure, there is no indication that KRP203 would cause arrhythmia or QT prolongation in man.

[3] = tested on: neuropharmacological effects; test: Safety pharmacology: neuropharmacological effects in rats; format: in vivo, rat; conditions: doses up to 2000 mg/kg, except some piloerection
[4] = tested on: respiratory function in dogs; test: Safety pharmacology: respiratory function in dogs; format: in vivo, dog; conditions: doses up to 20 mg/kg (highest dose tested)
Source text: as §1

[5] = tested on: QT prolongation; test: QT prolongation in anaesthetized guinea pigs; format: in vivo, guinea pig
Source text: as §1

[6] = tested on: dogs; test: Repeat-dose toxicity studies in dogs; format: in vivo
Source text: Transitory activation of phagocytic cells and increased secretion of soluble markers by these cells is considered a main contributing factor to smooth muscle hypertrophy/hyperplasia.

[7] = tested on: rabbit skin; test: Skin irritation; format: in vivo
[8] = tested on: pulmonary endothelial barrier; test: Pulmonary endothelial barrier after single oral dose; format: in vivo
Source text: as §1

[9] = tested on: dogs; test: Acute toxicity in dogs; format: in vivo, dog
Method: No mortality was seen following single oral dosing in dogs up to 2000 mg/kg.

[10] = tested on: rats and rabbits; test: Reproductive toxicity studies in rats and rabbits; format: in vivo
[11] = tested on: lymphocyte counts in peripheral blood; test: Reduction of lymphocyte counts in peripheral blood; conditions: in vivo
Source text: (§2) KRP203 reduces lymphocyte counts in peripheral blood by more than 80%.

[12] = tested on: liver; test: Genomic profiling of the liver in a 2-week exploratory toxicity study in rats; format: in vivo, rat
[13] = tested on: hematological cytotoxicity; test: Hematological cytotoxicity in vitro; format: cell-based; conditions: therapeutic concentrations in vitro
Source text: as §2

[14] = rat, in vivo
[15] = tested on: guinea pig papillary muscle preparation; test: APD in guinea pig papillary muscle preparation; conditions: concentrations of 3 μM
Source text: as §1

[16] = tested on: rats; test: Acute toxicity in rats; format: in vivo
[17] = tested on: peripheral lymphocyte counts; test: Recovery of absolute lymphocyte counts after S1P modulator dosing in healthy volunteers; format: in vivo, human; conditions: single 1 mg FTY720, BAF312 multiple doses for 28 days, single 3 mg KRP203
Method: Mocravimod is particularly preferred. […] A measurable parameter that determines maintenance of the mode of action, i.e., sequestering of lymphocytes in secondary lymphoid organs and bone marrow, is reduction of peripheral lymphocyte counts. Recovery of absolute lymphocyte counts to 80% of normal counts after a single 1 mg dose of FTY720, multiple dose applications of BAF312 for 28 days, or a single 3 mg dose of KRP203 was reached after 8, 7 and more than 10 days, respectively.

[18] = target: CYP3A4 (Homo sapiens, UniProt P08684); test: Metabolism by CYP enzymes (in vitro data); format: in vitro ADME
CYP3A4, sequence (P08684 whole entry): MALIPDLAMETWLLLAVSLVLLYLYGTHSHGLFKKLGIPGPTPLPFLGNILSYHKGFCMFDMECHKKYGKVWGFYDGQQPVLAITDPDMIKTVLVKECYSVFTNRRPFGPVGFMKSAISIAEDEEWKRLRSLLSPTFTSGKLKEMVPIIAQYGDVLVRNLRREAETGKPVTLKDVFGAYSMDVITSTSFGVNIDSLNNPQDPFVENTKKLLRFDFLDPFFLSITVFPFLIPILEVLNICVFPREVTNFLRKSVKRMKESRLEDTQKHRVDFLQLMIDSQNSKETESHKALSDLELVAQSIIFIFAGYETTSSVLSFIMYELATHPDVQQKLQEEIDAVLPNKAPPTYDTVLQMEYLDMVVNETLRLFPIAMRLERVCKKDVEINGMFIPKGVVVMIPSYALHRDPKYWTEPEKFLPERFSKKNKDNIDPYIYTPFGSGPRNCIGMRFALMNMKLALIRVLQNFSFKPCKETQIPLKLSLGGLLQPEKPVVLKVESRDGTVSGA
Source text: The weak inhibitory effect of ciclosporin on hepatic CYP3A4 is unlikely to relevantly impact the PK of KRP203.

In the case of `NC(CO)(CO)CCc1ccc(Sc2cccc(OCc3ccccc3)c2)cc1Cl` [KRP203, 2-amino-2-[4-(3-benzyloxyphenylthio)-2-chlorophenyl] ethyl-propane-1,3-diol], the genotoxic potential [1] is reported as “no evidence for a genotoxic potential”, the “potential to increase blood pressure, extrapolated exposure” value [2] is reported as 20.3 µM and the neuropharmacological effects [3] is reported as “no adverse neuropharmacological effects”. For the same compound, the “effects on respiratory function” value [4] was “no significant effects”, the QT prolongation [5] was “No indication for QT prolongation” and the gastro-intestinal findings ([6]; 26- and 52-week dog toxicity studies) was “gastro-intestinal tract disturbance with soft/mucoid stools and diarrhea occurred in males only at the high dose level”. The “no mortality up to daily dose” value ([6]; dogs, up to 52-week) was no more than 15 mg/kg, the skin irritation [7] was “not irritating” and the “effect on pulmonary endothelial barrier” value [8] was “mildly decreased pulmonary endothelial barrier”. For the same compound, the “no mortality following single oral dosing up to” value [9] was “up to 2000 mg/kg”, the “no effects on male fertility up to highest dose” value ([10]; in vivo) was no more than 20 mg/kg and the “NOAEL for embryo lethality and malformations” value ([10]; rat study) was “no NOAEL”. For the same compound, the reproductive toxicity ([10]; rats and rabbits) was “teratogenic potential and effects on the reproductive tract, resulting in embryo lethality and malformations at low doses”, the “reduction of lymphocyte counts in peripheral blood” value [11] was “more than 80%” and the “hepatotoxicity-related changes in genomic profiling of the liver” value [12] was “did not indicate any hepatotoxicity-related changes”. For the same compound, the exhibits hematological cytotoxicity [13] was “does not”, the “increase of exposure at the end of the 13-week treatment compared to single dose” value ([14]; both, 13 weeks) was 2-5 fold and the “proportionality between exposure and dose” value [14] was “apparent proportionality between exposure and dose”. For the same compound, the APD prolongation [15] was “No APD prolongation”, the “intravenous dose producing lethality” value [16] was “above 50 mg/kg” and the “oral dose producing lethality” value [16] was 1000 mg/kg. For the same compound, the “Recovery of absolute lymphocyte counts to 80% of normal counts” value [17] was “more than 10 days”, the “metabolism by CYP enzymes” value [18] was “only to a limited extent” and the “metabolism by CYP enzymes” value ([18]; listed as Mocravimod) was “mainly metabolized by the enzyme CYP3A4”.
